Experiments:
[1] = test system: IOP of rabbits receiving subTenon's dexamethasone acetate; test: Rabbit dexamethasone acetate-induced IOP elevation, topical ocular dosing; format: in vivo; conditions: for IOP change versus vehicle treated group: weekly subTenon's dexamethasone acetate 1 mg/kg
Protocol: Three groups of rabbits received weekly subTenon's injections of dexamethasone acetate (1 mg/kg) for 4 weeks. After two weeks, the […] of all three groups measured approximately 5 mm Hg. The rabbits were then treated with vehicle, 0.1% anecortave acetate, a 1% anecortave acetate by topical ocular dosing three times a day for the remaining 2 weeks. The IOP continued to increase in the vehicle treated group.

[2] = test system: glucocorticoid induced ocular hypertension; test: Topical anecortave acetate eye drops in patients with glucocorticoid induced ocular hypertension; format: in vivo, human (patients); conditions: 1% eye drops topically three times per day for up to 12 weeks, glucocorticoid continued, reduced from 29 mm Hg
Protocol: Patients ([…]) with documented glucocorticoid induced ocular hypertension were treated topically with 1% anecortave acetate eye drops three times per day for up to 12 weeks. The patients continued to receive their glucocorticoid medication.

IOPs (printed TOPs) after two weeks of dexamethasone acetate ([1]; weekly subTenon's injections 1 mg/kg, after two weeks, all three groups) | Compound | IOP change versus vehicle treated group ([1]; 0.1% topical ocular three times a day for 2 weeks) | IOP change versus vehicle treated group ([1]; 1% topical ocular three times a day for 2 weeks) | IOP after anecortave acetate treatment [2]
 | CC(=O)OCC(=O)[C@@]1(O)CC[C@H]2[C@@H]3CCC4=CC(=O)CC[C@]4(C)C3=CC[C@@]21C [anecortave acetate, 4,9(11)-pregnadien-17α,21-diol-3,20dione-21-acetate] | significantly lowered | significantly lowered | 19-22 mm Hg
approximately 5 mm Hg | CC(=O)OCC(=O)[C@@]1(O)[C@H](C)C[C@H]2[C@@H]3CCC4=CC(=O)C=C[C@]4(C)[C@@]3(F)[C@@H](O)C[C@@]21C [dexamethasone acetate] |  |  | 

From patent publication US20090181933A1, “USE OF STEROIDS TO TREAT PERSONS SUFFERING FROM OCULAR DISORDERS” (priority 2008, published 2009)
